Structures are written as SMILES.

The term melting point denotes the temperature of the solid-liquid transition. In turn, `Cn1nc(-c2nc(OCCN3CCOCC3)c(N)nc2-c2ccccc2)ccc1=O` [Example 181, 6-{5-amino-6-[2-(4-morpholinyl)ethoxy]-3-phenyl-2-pyrazinyl}-2-methyl-3(2H)-pyridazinone] returned a melting point of 185 to 187 °C.
On to `CC(C)n1nc(-c2ncc(N)nc2-c2ccccc2Br)ccc1=O` [Example 199, 6-[5-amino-3-(2-bromophenyl)-2-pyrazinyl]-2-isopropyl-3(2H)-pyridazinone], for which the melting point lay in the range of 189 to 191 °C.
With `Cn1nc(-c2nc(S(C)(=O)=O)c(N)nc2-c2ccccc2)ccc1=O` [Example 62, 6-[5-amino-6-(methylsulfonyl)-3-phenyl-2-pyrazinyl]-2-methyl-3(2H)-pyridazinone], the melting point fell in the range of 231 to 233 °C.
Then `CC(C)n1nc(-c2nc(OCCCCOCc3ccccc3)c(N)nc2-c2ccccc2)ccc1=O` [Example 169, 6-{5-amino-6-[4-(benzyloxy)butoxy]-3-phenyl-2-pyrazinyl}-2-isopropyl-3(2H)-pyridazinone], with 96.5 to 97.5 °C; and `Cc1csc(-c2nc(-c3ccc(=O)n(C(C)C)n3)c(-c3ccccc3)nc2N)n1` [Example 27, 6-[5-amino-6-(4-methyl-thiazol-2-yl)-3-phenyl-2-pyrazinyl]-2-isopropyl-3(2H)-pyridazinone], with 238 to 240 °C.
`CC(C)n1nc(-c2nc(C#N)c(C#N)nc2-c2ccccc2)ccc1=O` [Example 4, 5-(1-isopropyl-6-oxo-1,6-dihydro-3-pyridazinyl)-6-phenyl-2,3-pyrazinedicarbonitrile] returned a melting point of 201 to 202 °C.
Compound `CC(=O)NCCNc1nc(-c2ccc(=O)n(C(C)C)n2)c(-c2ccccc2)nc1N` [Example 133, N-(2-{[3-amino-6-(1-isopropyl-6-oxo-1,6-dihydro-3-pyridazinyl)-5-phenyl-2-pyrazinyl]amino}ethyl)acetamide] came in with a melting point of 147 to 149 °C.
With `CC(C)n1nc(-c2nc(OC3CCN(Cc4ccccc4)C3)c(N)nc2-c2ccccc2)ccc1=O` (centres unmarked) [Example 176, 6-{5-amino-6-[(1-benzyl-3-pyrrolidinyl)oxy]-3-phenyl-2-pyrazinyl}-2-isopropyl-3(2H)-pyridazinone] the figure was 179 to 181 °C; with `CCn1nc(-c2nc(C#N)c(N)nc2-c2ccccc2)ccc1=O` [Example 13, 3-Amino-6-(1-ethyl-6-oxo-1,6-dihydro-3-pyridazinyl)-5-phenyl-2-pyrazinecarbonitrile], over 250 °C.
With `Cn1nc(-c2nc(-n3cncn3)c(N)nc2-c2ccccc2)ccc1=O` [Example 155, 6-[5-amino-3-phenyl-6-(1H-1,2,4-triazol-1-yl)-2-pyrazinyl]-2-methyl-3(2H)-pyridazinone] the figure was over 250 °C; with `CC(C)n1nc(-c2nc(S(C)(=O)=O)c(N)nc2-c2ccccc2)ccc1=O` [Example 55, 6-[5-amino-6-(methylsulfonyl)-3-phenyl-2-pyrazinyl]-2-isopropyl-3(2H)-pyridazinone], 249 to 251 °C.
Take `COc1ccc(CNc2nc(-c3ccccc3)c(-c3ccc(=O)n(C(C)C)n3)nc2C(=O)O)cc1` [Example 46, 6-(1-isopropyl-6-oxo-1,6-dihydro-3-pyridazinyl)-3-[(4-methoxybenzyl)amino]-5-phenyl-2-pyrazinecarboxylic acid]: the melting point lay in the range of 216.5 to 217 °C.
With `Cn1nc(-c2nc(NCCNc3ccccc3)c(N)nc2-c2ccccc2)ccc1=O` [Example 123, 6-{5-amino-6-[(2-anilinoethyl)amino]-3-phenyl-2-pyrazinyl}-2-methyl-3(2H)-pyridazinone] the figure was 181 to 183 °C.
Turning to `CC(C)n1nc(-c2nc(OCC(F)(F)F)c(N)nc2-c2ccccc2)ccc1=O` [Example 171, 6-[5-amino-3-phenyl-6-(2,2,2-trifluoroethoxy)-2-pyrazinyl]-2-isopropyl-3(2H)-pyridazinone], the melting point was in the range of 233 to 235 °C.
In turn, `Cn1nc(-c2nc(Oc3ccc(F)cc3)c(N)nc2-c2ccccc2)ccc1=O` [Example 186, 6-[5-amino-6-(4-fluorophenoxy)-3-phenyl-2-pyrazinyl]-2-methyl-3(2H)-pyridazinone] had a melting point of 229 to 231 °C.
Regarding `COc1ccc(CN(Cc2ccc(OC)cc2)c2nc(-c3ccccc3)c(-c3ccc(=O)n(C(C)C)n3)nc2C(N)=O)cc1` [Example 52, 3-[bis(4-methoxybenzyl)amino]-6-(1-isopropyl-6-oxo-1,6-dihydro-3-pyridazinyl)-5-phenyl-2-pyrazinecarboxamide], the melting point lay in the range of 120 to 122.5 °C.
Turning to `Cn1nc(-c2nc(NC3CCN(Cc4ccccc4)C3)c(N)nc2-c2ccccc2)ccc1=O` (centres unmarked) [Example 128, 6-{5-amino-6-[(1-benzyl-3-pyrrolidinyl)amino]-3-phenyl-2-pyrazinyl}-2-methyl-3(2H)-pyridazinone], the melting point lay in the range of 183 to 185 °C.
`CC(C)n1nc(-c2nc(Nc3ccccc3)c(N)nc2-c2ccccc2)ccc1=O` [Example 139, 6-(5-amino-6-anilino-3-phenyl-2-pyrazinyl)-2-isopropyl-3(2H)-pyridazinone] yielded a melting point of over 250 °C.
`CC(C)n1nc(-c2nc(N3CCOCC3)c(N)nc2-c2ccccc2)ccc1=O` [Example 140, 6-[5-amino-6-(4-morpholinyl)-3-phenyl-2-pyrazinyl]-2-isopropyl-3(2H)-pyridazinone] showed a melting point of 212 to 214.5 °C.
Regarding `COCCOc1nc(-c2ccc(=O)n(C)n2)c(-c2ccccc2)nc1N` [Example 180, 6-[5-amino-6-(2-methoxyethoxy)-3-phenyl-2-pyrazinyl]-2-methyl-3(2H)-pyridazinone], the melting point lay in the range of 139 to 141 °C.
`CC(C)n1nc(-c2ncc(N=S(C)C)nc2-c2ccccc2)ccc1=O` [Example 65, 6-{5-[(dimethyl-lambda˜4˜-sulfanylidene)amino]-3-phenyl-2-pyrazinyl}-2-isopropyl-3(2H)-pyridazinone] had a melting point of 190 to 194 °C.
The compound `CSc1nc(-c2ccc(=O)n(C(C)C)n2)c(-c2ccccc2)nc1N` [Example 54, 6-[5-amino-6-(methylthio)-3-phenyl-2-pyrazinyl]-2-isopropyl-3(2H)-pyridazinone] gave a melting point of 211 to 214 °C.
`CC(C)n1nc(-c2nc(OCCOC(C)(C)C)c(N)nc2-c2ccccc2)ccc1=O` [Example 167, 6-[5-amino-6-(2-tert-butoxyethoxy)-3-phenyl-2-pyrazinyl]-2-isopropyl-3(2H)-pyridazinone]: the melting point was 163 to 165 °C.
For `CC(C)n1nc(-c2nc(Oc3ccc(F)cc3)c(N)nc2-c2ccccc2)ccc1=O` [Example 158, 6-[5-amino-6-(4-fluorophenoxy)-3-phenyl-2-pyrazinyl]-2-isopropyl-3(2H)-pyridazinone], the melting point fell in the range of 173 to 175 °C.
With `COc1ccc(-c2nc(N)c(C(N)=O)nc2-c2ccc(=O)n(C(C)C)n2)cn1` [Example 194, 3-amino-6-(1-isopropyl-6-oxo-1,6-dihydro-3-pyridazinyl)-5-(6-methoxy-3-pyridyl)-2-pyrazinecarboxamide] the figure was 250 to 252 °C; with `CCn1nc(-c2nc(C#N)c(NCc3ccc(OC)cc3)nc2-c2ccccc2)ccc1=O` [Example 12, 6-(1-Ethyl-6-oxo-1,6-dihydro-3-pyridazinyl)-3-[(4-methoxybenzyl)amino]-5-phenyl-2-pyrazinecarbonitrile], 165.5 to 167.5 °C.
